The text below walks through data of patent US9770025B2, “Fungicidal compositions” (Syngenta Participations AG, priority 2013, dated 2017).

What all share (type): cell-based
For one assay, the system named is Alternaria solani. The assay can be described thus: Alternaria solani liquid culture growth inhibition. The conditions noted are these: for (B2) Inhibition (%) / (B4) Inhibition (%) / (B5) Inhibition (%): PDB; for (B2) Inhibition (%): Table 9; for (B4) Inhibition (%): Table 11; for (B5) Inhibition (%): Table 13. The procedure: (§1) Liquid Culture Tests in Well Plates
Mycelia fragments or conidia suspensions of a fungus, prepared either freshly from liquid cultures of the fungus or from cryogenic storage, were directly mixed into nutrient broth. DMSO solutions of the test compound (max. 10 mg/ml) was diluted with 0.025% Tween20 by factor 50 and 10 μl of this solution was pipetted into a microtiter plate (96-well format). […] The test plates were incubated in the dark at 24° C. and 96% rh. The inhibition of fungal growth was determined photometrically and visually after 2-4 days, depending on the pathosystem, and percent antifungal activity relative to the untreated check was calculated.
Alternaria solanil/Liquid Culture:
(§2) Conidia of the fungus from cryogenic storage were directly mixed into nutrient broth (PDB potato dextrose broth). After placing a (DMSO) solution of test compound into a microtiter plate (96-well format), the nutrient broth containing the fungal spores was added.

For assay [1], the system named is Mycosphaerella graminicola (Septoria tritici). Briefly: Mycosphaerella graminicola (Septoria tritici) liquid culture growth inhibition. The following applies: for (B4) Inhibition (%) / (B5) Inhibition (%): PDB; for (B4) Inhibition (%): Table 12; for (B5) Inhibition (%): Table 14. Here is the method: as §1
(§3) Mycelia fragments or conidia suspensions of a fungus, prepared either freshly from liquid cultures of the fungus or from cryogenic storage, were directly mixed into nutrient broth. DMSO solutions of the test compound (max. 10 mg/ml) was diluted with 0.025% Tween20 by factor 50 and 10 μl of this solution was pipetted into a microtiter plate (96-well format). The nutrient broth containing the fungal spores/mycelia fragments was then added to give an end concentration of the tested compound. The test plates were incubated in the dark at 24° C. and 96% rh. The inhibition of fungal growth was determined photometrically and visually after 2-4 days, depending on the pathosystem, and percent antifungal activity relative to the untreated check was calculated.
Mycosphaerella graminicola (Septoria tritici)/Liquid Culture:
as §2

The next assay has as its system Pythium ultimum. Briefly: Pythium ultimum (seedling damping off) liquid culture growth inhibition. The following applies: 0.0625 ppm; PDB; Table 10. Here is the method: as §1, §3
Pythium ultimum Seedling Damping Off)/Liquid Culture:
Mycelia fragments and oospores of a newly grown liquid culture of the fungus were directly mixed into nutrient broth (PDB potato dextrose broth). After placing a (DMSO) solution of the test compounds into a microtiter plate (96-well format), the nutrient broth containing the fungal mycelia/spore mixture was added.

Assay [2] relates to Botryotinia fuckeliana (Botrytis cinerea). The assay can be described thus: Botryotinia fuckeliana (Botrytis cinerea) liquid culture growth inhibition. The conditions noted are these: in Vogels Broth. The procedure:
as §1, §3
Botryotinia fuckeliana (Botrytis cinerea)/Liquid Culture:
Conidia of the fungus from cryogenic storage were directly mixed into nutrient broth (Vogels broth). After placing a (DMSO) solution of test compound into a microtiter plate (96-well format), the nutrient broth containing the fungal spores was added.

For another assay, the system named is Fusarium culmorum. Briefly: Fusarium culmorum liquid culture growth inhibition. The conditions noted are these: in PDB. The procedure: as §1, §3
Fusarium culmorum/Liquid Culture:
as §2

Assay [3] relates to Monographella nivalis (Microdochium nivale). Briefly: Monographella nivalis (Microdochium nivale) liquid culture growth inhibition. Here is the method: as §1, §3
Monographella nivalis (Microdochium nivale)/Liquid Culture:
as §2

In the next assay the test system is Gaeumannomyces graminis. Briefly: Gaeumannomyces graminis liquid culture growth inhibition. The following applies: in PDB. Here is the method:
as §1, §3
Gaeumannomyces graminis/Liquid Culture:
Mycelial fragments of the fungus from cryogenic storage were directly mixed into nutrient broth (PDB potato dextrose broth). After placing a (DMSO) solution of test compound into a microtiter plate (96-well format), the nutrient broth containing the fungal spores was added.

Setting [4] is: Monographella nivalis, read-out: (B10) Inhibition (%).
[5] abbreviates: Zymoseptoria tritici, read-out: (B10) Inhibition (%).

Turning to `C=CCSC(=O)n1c(N)c(-c2ccccc2C)c(=O)n1C(C)C` [(B2), fenpyrazamine], the “(B2) Inhibition (%)” value in the assay on Alternaria solani (0.0313 ppm) was determined as 0%; in the assay on Alternaria solani (0.0625 ppm), 1%.

Take `Cc1cc(C(F)(F)F)nn1CC(=O)N1CCC(c2nc(C3=NOC(c4c(F)cccc4F)C3)cs2)CC1` (stereo not drawn) [(B4), oxathiapiprolin]: the “(B4) Inhibition (%)” value with Alternaria solani (0.0039 ppm) was determined as 0%; with Alternaria solani (0.0078 ppm), 4%; in the assay with Alternaria solani (0.0156 ppm), 0%; in the assay on Alternaria solani (0.0313 ppm), 0%; in assay [1] (0.0313 ppm), 8%; in assay [1] (0.0625 ppm), 4%. The “(B4) Inhibition (%)” value in the assay with Pythium ultimum worked out at 61%.

For the compound `Cc1ccc(C(=O)NC[C@@H](NC(=O)OCC(F)(F)F)C(C)C)cc1` [(B5), tolprocarb], the “(B5) Inhibition (%)” value was 0% in the assay on Alternaria solani (0.0391 ppm); 0% in the assay with Alternaria solani (0.0781 ppm); 0% with Alternaria solani (0.3125 ppm); 7% in assay [1] (0.0391 ppm); 1% in assay [1] (0.0781 ppm); 4% in assay [1] (0.1563 ppm). For the same compound, in assay [1] (0.6250 ppm), the “(B5) Inhibition (%)” value came to 1%.

With `CO/C=C(/C(=O)OC)c1ccccc1COc1ccc(C(F)(F)F)cc1Cl` [(B6), flufenoxystrobin, reference compound], the “(B6) Inhibition (%)” value in the assay on Alternaria solani (0.0016 ppm, in PDB) is 6%; with Alternaria solani (0.0063 ppm, in PDB), 1%; in assay [2] (0.0063 ppm), 17%; in assay [2] (0.0125 ppm), 23%; in assay [2] (0.0250 ppm), 33%; in the assay on Fusarium culmorum (0.0500 ppm), 5%. The “(B6) Inhibition (%)” value amounted to 3% in the assay on Fusarium culmorum (0.1000 ppm); 12% in the assay on Fusarium culmorum (0.2000 ppm); 23% in assay [3] (0.0008 ppm, in PDB); 51% in assay [3] (0.0016 ppm, in PDB); 17% in assay [1] (0.0031 ppm, in PDB); 23% in assay [1] (0.0063 ppm, in PDB). Also, the “(B6) Inhibition (%)” value in assay [1] (0.0125 ppm, in PDB) came out at 33%.

As usually defined, the inhibition is the percentage by which the read-out fell short of the control. For `CC1CC(C)(C)c2c(F)ccc(NC(=O)c3cn(C)nc3C(F)F)c21` (stereo not drawn) [(B9)], the inhibition at 0.0078 ppm was determined as 0% in the assay on Alternaria solani (Alternaria solani, 0.0078 ppm, in PDB, read-out: (B9) Inhibition (%)) and 19% in assay [2] (Botrytis cinerea, 0.0078 ppm, read-out: (B9) Inhibition (%)). Further, the inhibition at 0.0156 ppm in the assay with Alternaria solani (Alternaria solani, 0.0156 ppm, in PDB, read-out: (B9) Inhibition (%)) amounted to 11%; in assay [2] (Botrytis cinerea, 0.0156 ppm, read-out: (B9) Inhibition (%)), 31%; in assay [1] (Zymoseptoria tritici, 0.0156 ppm, in PDB, read-out: (B9) Inhibition (%)), 0%. Also, the inhibition at 0.0313 ppm with Alternaria solani (Alternaria solani, 0.0313 ppm, in PDB, read-out: (B9) Inhibition (%)) amounted to 5%; in assay [2] (Botrytis cinerea, 0.0313 ppm, read-out: (B9) Inhibition (%)), 52%; in assay [1] (Zymoseptoria tritici, 0.0313 ppm, in PDB, read-out: (B9) Inhibition (%)) it was 9%. Besides, the inhibition at 0.0625 ppm came out at 22% in the assay on Alternaria solani (Alternaria solani, 0.0625 ppm, in PDB, read-out: (B9) Inhibition (%)) and 7% in assay [1] (Zymoseptoria tritici, 0.0625 ppm, in PDB, read-out: (B9) Inhibition (%)). Further, the inhibition at 0.0039 ppm in assay [2] (Botrytis cinerea, 0.0039 ppm, read-out: (B9) Inhibition (%)) came to 14%; in assay [1] (Zymoseptoria tritici, 0.0039 ppm, in PDB, read-out: (B9) Inhibition (%)), 0%. For the same compound, the inhibition at 0.125 ppm in assay [3] (Monographella nivalis, 0.1250 ppm, in PDB, read-out: (B9) Inhibition (%)) was 0%. The inhibition at 0.5 ppm in assay [3] (Monographella nivalis, 0.5000 ppm, in PDB, read-out: (B9) Inhibition (%)) amounted to 0%. For the same compound, the inhibition at 1 ppm in assay [3] (Monographella nivalis, 1.0000 ppm, in PDB, read-out: (B9) Inhibition (%)) worked out at 10%.

Turning to `CCCCc1c(C)c2ccc(OCc3ccccc3/C(=C\OC)C(=O)OC)cc2oc1=O` [(B10), coumoxystrobin, reference compound], the inhibition at 0.05 ppm in the assay with Fusarium culmorum (Fusarium culmorum, 0.0500 ppm, read-out: (B10) Inhibition (%)) stood at 12%. Moreover, the inhibition at 0.1 ppm with Fusarium culmorum (Fusarium culmorum, 0.1000 ppm, read-out: (B10) Inhibition (%)) came out at 8%. For the same compound, the inhibition at 0.2 ppm in the assay with Fusarium culmorum (Fusarium culmorum, 0.2000 ppm, read-out: (B10) Inhibition (%)) was 11%. Further, in assay [3] (setting [4]), the inhibition at 0.0008 ppm turned out to be 46% and the inhibition at 0.0016 ppm was 81%. Further, in assay [1] (setting [5]), the inhibition at 0.0016 ppm amounted to 5%, the inhibition at 0.0031 ppm came to 13% and the inhibition at 0.0063 ppm came to 31%.

On to `CNC(=O)C(OC)c1ccccc1COc1cc(C)ccc1C` (stereo not drawn) [(B11), mandestrobin, reference compound], for which the “(B11) Inhibition (%)” value in the assay on Alternaria solani (0.0008 ppm, in PDB) was 0%; in the assay on Alternaria solani (0.0016 ppm, in PDB) it was 3%; in the assay on Alternaria solani (0.0031 ppm, in PDB) it was 0%; in the assay on Alternaria solani (0.0063 ppm, in PDB) it was 12%; in assay [2] (0.0016 ppm), 5%; in assay [2] (0.0250 ppm), 0%. For the same compound, the “(B11) Inhibition (%)” value in assay [2] (0.0500 ppm) was determined as 8%; in the assay with Fusarium culmorum (0.1000 ppm) it was 0%; in the assay with Fusarium culmorum (0.2000 ppm), 11%; in the assay on Gaeumannomyces graminis (0.0500 ppm) it was 17%; with Gaeumannomyces graminis (0.1000 ppm), 53%; in assay [3] (0.0250 ppm, in PDB) it was 0%.

`CC(=O)Oc1c(C)c(C)nc2c(F)cc(C(C)(C)C)cc12` [(B12), tebufloquin, reference compound]: the “(B12) Inhibition (%)” value in the assay with Alternaria solani (0.0156 ppm, in PDB) turned out to be 0%; in the assay with Alternaria solani (0.0313 ppm, in PDB), 1%; in assay [2] (0.0313 ppm) it was 5%; in assay [2] (0.1250 ppm) it was 0%; in assay [3] (0.2500 ppm, in PDB) it was 7%; in assay [3] (0.5000 ppm, in PDB), 60%.

In the case of `COC(=O)N(OC)c1ccccc1COc1nc(Cl)c(Cl)cc1Cl` [(B13), triclopyricarb, reference compound], the “(B13) Inhibition (%)” value in assay [2] ((B13) triclopyricarb alone at 0.0125 ppm) is 8%; in assay [2] ((B13) triclopyricarb alone at 0.0250 ppm), 18%; in the assay with Fusarium culmorum (0.0500 ppm), 11%; with Fusarium culmorum (0.1000 ppm), 10%; in the assay with Fusarium culmorum (0.2000 ppm), 11%; in assay [3] ((B13) triclopyricarb alone at 0.0016 ppm, in PDB), 23%. Further, in assay [3] ((B13) triclopyricarb alone at 0.0031 ppm, in PDB), the “(B13) Inhibition (%)” value is 51%.

The compound `CCN(C)/C=N/c1cc(C)c(Oc2nc(Cc3ccc(Cl)cc3)ns2)cc1C` [(B14), N′-[4-[[3-[(4-chlorophenyl)methyl]-1,2,4-thiadiazol-5-yl]oxy]-2,5-dimethylphenyl]-N-ethyl-N-methyl-methanimidamide, reference compound] gave an inhibition at 0.25 ppm in assay [3] (Monographella nivalis, (B14) compound of formula IV alone at 0.2500 ppm, in PDB) of 40%.
